Laboratory results published in article PMC6368365, “Didehydro-Cortistatin A Inhibits HIV-1 by Specifically Binding to the Unstructured Basic Region of Tat” (mBio, 2019).

Legend:
[1] = target: T1, recombinant Tat (Human immunodeficiency virus type 1 group M subtype B, UniProt P69697); assay: DARTS assay (protection from proteinase K); type: binding, HIV-1; conditions: 20 min room temperature, Western blot
T1 construct: pTatC6H-1 (NIH AIDS Reagent Program) plasmid encoding C-terminal 6xHistidine Tat1-86 (HXB3, subtype B); made in house; host or cells: E. coli BL21 (plasmid pTatC6H-1, NIH AIDS Reagent Program)
T1 sequence (P69697 whole entry): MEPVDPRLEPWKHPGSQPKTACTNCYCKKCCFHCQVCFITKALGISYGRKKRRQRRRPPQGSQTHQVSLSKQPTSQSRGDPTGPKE
Description: To confirm that dCA stabilizes Tat structure, we performed drug affinity responsive target stability (DARTS) assays to measure the protection against proteolysis conferred on the target protein by interaction with a small molecule. For this purpose, we incubated Tat with several concentrations of dCA and different concentrations of proteinase K (PK) for 20 min at room temperature. PK digests proteins preferably after hydrophobic, aliphatic, and aromatic residues. The protection was determined by Western blotting with an anti-His antibody (Fig. 5B). Tat alone was proportionally degraded with increasing concentrations of PK. […] Both the fluorescence assays and the DARTS assays support the notion that dCA stabilizes Tat protein.
dCA or an analog of dCA (analog 2) was incubated with 30 ng of recombinant Tat for 20 min at room temperature. Then PK (Ambion) was added at different concentrations. The remaining Tat was quantified by Western blotting using polyclonal anti-Tat antibodies (AIDS Reagent Program) at a 1:2,000 dilution.

[2] = target: T2, HIV Tat HXB3 (Human immunodeficiency virus type 1 group M subtype B, UniProt P69697); assay: Isothermal titration calorimetry of dCA binding to Tat; parameters: species or system HIV-1
T2 construct: pTatC6H-1 (NIH AIDS Reagent Program) plasmid encoding C-terminal 6xHistidine Tat1-86 (HXB3, subtype B); made in house; host or cells: E. coli BL21 (plasmid pTatC6H-1, NIH AIDS Reagent Program)
T2 sequence (P69697 whole entry): as above
Description: Next, we studied the direct interaction of Tat with dCA using ITC. After gradual titration of Tat with dCA in the ITC cell, the integrated heat data of the dCA-Tat interaction were collected (Fig. 1G). This ITC titration curve fitted well with a single-site binding process with a nonlinear least-squares regression, allowing the determination of the association constant (Ka) and entropy (ΔS) and enthalpy (ΔH) changes, as well as the average number of binding sites (N). We determined a 1:1 binding stoichiometry with a Ka of ∼(9.39 ± 1.7) × 10^6 M^−1 (dissociation constant [Kd] = 100 nM). Moreover, dCA binds to Tat at 25°C with a negative (favorable) enthalpy of −3.5 ± 0.1 kcal mol^−1 and positive (favorable) entropy of +20.0 ± 0.5 cal mol^−1 K^−1. The favorable values of ΔH and ΔS are consistent with the characteristics of a combination of van der Waals, hydrophobic, and electrostatic interactions in the binding process. The difference between Tat/dCA affinity (ITC, 100 nM) and dCA inhibitory activity in cell-based assays (0.6 to 2 nM) (Table 2) ([10]) could be the result of the nature of the Tat-TAR feedback loop that amplifies activity in vivo; especially since the amount of Tat in vivo after infection is very low ([24]).
A detailed protocol for ITC is provided in Text S1.
Isothermal titration calorimetry. The measurements were conducted at 25 °C on a Microcal VP-ITC (Microcal, Inc.; Northampton MA). Titrations of HIV Tat HXB3 and HIV-1 TAR with dCA (or peptide, ^46SYGRKKRRQRRRPPQ^60) were done by injecting 250 μL into an isothermal sample chamber containing 1.5 mL HIV Tat HXB3 or HIV-1 TAR solution that was 10 μM in strand. Each experiment of this type was accompanied by the corresponding control experiment in which peptide or dCA injected into a solution of buffer alone. The duration of each injection was 8 s and the delay between the injections was 300 s and 180 s, the initial delay prior to the first injection was 300 s. Each injection generated a heat burst curve (microcalories/second vs. seconds) and the area under each curve was determined by integration [using the origin version 7.0 software (Microcal, Inc.; Northampton, MA)] to obtain the measure of the heat associated with that injection.

[3] = MTT viability assay, 72 h; type: cell-based; conditions: human, HeLa-CD4-LTR-LacZ cells, mean ± SD, n = 2 to 3
Description: The assay was performed with MTT [3-(4,5-dimethyl-2-thiazolyl)-2,5-diphenyl-2H-tetrazolium bromide] as described in reference.

[4] = in vivo; cited from earlier work

CN(C)C1CC23CCC4(O2)C(=CCC2(C)C(c5ccc6ccncc6c5)=CCC24)C=C3C(O)C1O (stereo not shown) [dCA, didehydro-cortistatin A]
protection of Tat from proteinase K degradation [1]: Tat degradation by PK was significantly reduced | Kd [2]: 0.1 µM | enthalpy (ΔH) ([2]; ITC, 25°C): -3.5 ± 0.1 kcal/mol | entropy (ΔS) ([2]; ITC, 25°C): +20.0 ± 0.5 cal mol^−1 K^−1 | association constant (Ka) ([2]; ITC, 25°C, single-site fit): (9.39 ± 1.7) × 10^6 M^−1 | CC50 at 72 h [3]: 20 µM | penetration of viral sanctuaries [4]: penetrates viral sanctuaries such as the brain
